The text below walks through data of patent US6207393A, “Inhibition of intracellular signal transduction by 14-3-3-binding peptides” (Washington University, priority 1999, dated 2001).

Where a SMILES comes first, the peptide text is derived from it. [ ]: non-standard residue; d: D form. pS = N[C@@H](COP(=O)(O)O)C(=O)O

For one test, the target named is T1, 14-3-3 eta (Homo sapiens, UniProt Q04917).
T1 construct: made in house; host or cells: E. coli DH5α (vector pGEX-KT)
T1 sequence (Q04917 1-246): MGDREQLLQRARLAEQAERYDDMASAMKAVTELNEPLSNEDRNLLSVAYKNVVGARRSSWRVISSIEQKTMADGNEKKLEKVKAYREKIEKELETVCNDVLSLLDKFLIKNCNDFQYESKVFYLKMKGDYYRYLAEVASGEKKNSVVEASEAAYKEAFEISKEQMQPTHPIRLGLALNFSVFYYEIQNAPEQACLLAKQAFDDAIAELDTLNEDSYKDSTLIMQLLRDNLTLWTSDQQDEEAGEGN
In words: SPR competitive inhibition of 14-3-3 eta binding to phosphorylated Raf-259 peptide. Particulars: isoform eta. Here is the method:
(§1) The ability of each peptide to inhibit binding of 14-3-3 zeta to the phosphorylated peptide was then tested in a range of concentrations between 1 and 50 μM. 14-3-3 zeta was prepared according to the methods in Example 1 and binding affinities and specificities were determined using the peptides in Table 2. The 14-3-3 zeta fusion proteins (0.5-1.0 μM) were pre-incubated with a given peptide at concentrations between 1 μM and 50 μM. 14-3-3 zeta was then infused across a sensor chip surface which had been previously coupled with the phosphorylated Raf-259 peptide (SEQ ID NO: 4). IC50 values were determined by plotting the concentration of competitor peptide required to achieve a 50% reduction in equilibrium binding.
(§2) There are seven known isoforms of 14-3-3 which form homo- and heterodimers in vivo. If different isoforms of 14-3-3 could bind to proteins with distinct specificities, heterodimeric forms of 14-3-3 might function as modular linker proteins, bringing together different proteins into a single complex. We were, therefore, interested in determining whether different 14-3-3 isoforms recognize phosphoserine in a sequence specific fashion. This hypothesis was tested by expressing and purifying three other 14-3-3 isoforms, eta, beta and tau, and measuring their affinity towards the panel of phosphorylated peptides generated above. Using the Surface Plasmon Resonance method, the "on" and "off" rates for 14-3-3 binding to the phosphorylated Raf-259 peptide were calculated (Table 6).
(§3) Competitive inhibition with the mutated phosphorylated Raf-1 peptides was used to determine whether their specificities were similar (Table 7). In each case, the calculated IC50 s were very similar to those calculated for 14-3-3 zeta.

In the next test the target is T2, 14-3-3 beta (Homo sapiens, UniProt P31946).
T2 construct: made in house; host or cells: E. coli DH5α (vector pGEX-KT)
T2 sequence (P31946 1-246): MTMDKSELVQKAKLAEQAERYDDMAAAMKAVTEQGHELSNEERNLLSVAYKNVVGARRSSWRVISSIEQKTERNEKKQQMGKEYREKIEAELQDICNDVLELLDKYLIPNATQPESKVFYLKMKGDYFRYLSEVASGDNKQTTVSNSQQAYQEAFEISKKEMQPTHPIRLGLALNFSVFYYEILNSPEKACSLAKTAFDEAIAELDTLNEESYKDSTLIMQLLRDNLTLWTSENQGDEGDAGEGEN
As to the kind of experiment: Surface plasmon resonance kinetics, 14-3-3 beta binding to phosphorylated Raf-259 peptide. As to conditions: isoform beta. Here is the method: Because the surface plasmon resonance detects binding in real time, this method can be used to directly determine the rates of association (kon) and dissociation (koff). For these kinetic measurements, GST/14-3-3 fusion proteins were injected over a range of concentrations between 200 nM and 5 μM. The "on" rate, kon, was determined by calculating dR/dt for the initial linear portion of association using the Biaevaluation software (Pharmacia). Because ligand rebinding to the sensor chip can affect the "off" rate (koff, Panayotou et al. Mol Cell Biol 13:3567-76, 1993 which is incorporated by reference), we measured the "off" rate in the presence of 50 μM free ligand by using the coinject function of the Biacore. The "off" rate measured in the absence of 50 μM free ligand was approximately 10-fold lower.
as §2

The target of the next test is T3, 14-3-3 tau (Homo sapiens, UniProt P27348).
T3 construct: made in house; host or cells: E. coli DH5α (vector pGEX-KT)
T3 sequence (P27348 1-245): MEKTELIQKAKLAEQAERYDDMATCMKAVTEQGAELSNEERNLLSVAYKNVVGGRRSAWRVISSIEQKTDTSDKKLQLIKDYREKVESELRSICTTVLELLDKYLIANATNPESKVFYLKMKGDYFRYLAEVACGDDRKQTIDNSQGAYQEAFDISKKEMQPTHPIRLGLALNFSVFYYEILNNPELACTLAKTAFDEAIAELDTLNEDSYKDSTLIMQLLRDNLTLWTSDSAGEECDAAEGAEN
As to the kind of experiment: SPR competitive inhibition of 14-3-3 tau binding to phosphorylated Raf-259 peptide. Particulars: isoform tau. Here is the method:
as §1, §2, §3

As usually defined, the IC50 is the point on the concentration scale where inhibition reaches its midpoint. A high value points to lower potency. What is called Kd is the free concentration of one partner at which half of the binding sites on the other are occupied at equilibrium, for simple one-to-one binding. Usually koff stands for the rate constant with which the complex falls apart. Higher therefore signals a short-lived complex. As a reminder, the kon is a measure of how fast the partners come together. A high value points to faster complex formation. At 14-3-3 eta, `CC(C)C[C@H](N)C(=O)N[C@@H](CO)C(=O)N[C@@H](CCC(N)=O)C(=O)N[C@@H](CCCNC(=N)N)C(=O)N[C@@H](CCC(N)=O)C(=O)N[C@@H](CCCNC(=N)N)C(=O)N[C@@H](CO)C(=O)N[C@H](C(=O)N[C@@H](COP(=O)(O)O)C(=O)N[C@H](C(=O)N1CCC[C@H]1C(=O)N[C@@H](CC(N)=O)C(=O)N[C@H](C(=O)N[C@@H](Cc1c[nH]cn1)C(=O)N[C@@H](C)C(=O)O)C(C)C)[C@@H](C)O)[C@@H](C)O` [pS-Raf-259] (H-LSQRQRST[pS]TPNVHA-OH) registered an IC50 of 5 µM. Besides, on 14-3-3 beta, the Kd turned out to be 0.145 µM, the koff amounted to 0.0032 s⁻¹ and the kon was determined as 22000 M⁻¹ s⁻¹. This compound registered an IC50 at 14-3-3 tau of 5 µM.
